Laboratory results reported in PubChem BioAssay AID179 (DTP/NCI, 2004).
Activity calls are given as the source filed them.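 The calls were made as follows: active = compounds giving half or more protection of infected cells from virus-caused growth loss, again on retest; inactive = the rest.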

System: CEM cells HIV-1 protection, formazan growth assay
Experiment: NCI AIDS Antiviral Assay
Conditions: for IC50: measured here: growth of uninfected CEM cells
Summary of the method: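 Steps: treat uninfected and HIV-1-infected human CEM cells at five drug levels; quantify growth by soluble formazan; retest any compound reaching 50% protection; classify actives from the retest.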

COC(=O)/C=C/C(=O)CC(O)COC(=O)c1ccccc1 (stereo unspecified)
EC50: > 85.1 µM
IC50: 2.09 µM

O=C(C[N+]12CC=C(CO)C1C(O)CC2)c1ccc(Br)cc1 (stereo unspecified)
EC50: > 575 µM
IC50: > 575 µM

NC(CSS(=O)(=O)O)=NC1CC1
EC50: > 200 µM
IC50: > 200 µM

C=CC1(c2ccc(OC)cc2)OCCCO1
EC50: > 200 µM
IC50: 97.7 µM

CC(=O)Nc1[nH]n(C)c(=O)c1-c1nnc(C)s1
EC50: > 977 µM
IC50: 437 µM

CCOC(=O)c1nc2cc(F)c(N3CCOCC3)cc2[nH]c1=O
EC50: > 200 µM
IC50: 95.5 µM

COC(=O)C1=C(OC(C)=O)c2ccccc2CS1
EC50: > 135 µM
IC50: 123 µM

C[C@@]12C[C@@H](c3ccccc3O1)N1CCCCSC1=N2
EC50: > 200 µM
IC50: > 200 µM

O=C1/C(=C\c2cccc(Oc3ccccc3)c2)SC(c2ccccc2)N1c1cccc([N+](=O)[O-])c1 (stereo unspecified)
EC50: > 200 µM
IC50: 39.8 µM

COc1cc2c(c(O)c1OC)c(=O)c1ccccc1n2C
EC50: > 200 µM
IC50: 66.1 µM

CCOC(=O)C1Cc2ccc(OC)cc2C2=CC(=O)CCC21 (stereo unspecified)
EC50: > 166 µM
IC50: > 166 µM

COc1ccc(CC2COC(=O)[C@@H]2Cc2cccc(O)c2)cc1OC (stereo partly specified)
EC50: > 200 µM
IC50: 155 µM

Cc1cc(=NCCCN(C)C)c2ccc3c(ccc4c(=NCCCN(C)C)cc(C)n(O)c43)c2n1O
EC50: > 200 µM
IC50: 10.2 µM

C[Si]1(C)[Si](C)(C)[Si](C)(C)[Si](C)(C)[Si](C)(C)[Si]1(C)C
EC50: > 28.8 µM
IC50: > 28.8 µM

O=C(/C(=C/c1ccc(F)cc1)c1ccccc1)c1ccccc1
EC50: > 6.61 µM
IC50: > 6.61 µM

NC(CSS(=O)(=O)O)=NCCCCOc1ccccc1
EC50: > 200 µM
IC50: 91.2 µM

Cc1cc(S(=O)(=O)Nc2nc3ccccc3n2-c2ccccc2)c(S)cc1Cl
EC50: > 200 µM
IC50: 162 µM

O=S1(=O)OC(c2ccc(O)cc2)(c2ccc(O)cc2)c2ccccc21
outcome: inactive

c1ccc2c(c1)sc1scc[n+]12
EC50: > 617 µM
IC50: 12.9 µM

CCC1(O)C(=O)c2ccccc2N(c2ccccc2)C1=O (stereo unspecified)
EC50: > 200 µM
IC50: > 200 µM

O=C1CN(S(=O)(=O)c2ccc([N+](=O)[O-])cc2)CC(=O)CN(S(=O)(=O)c2ccc([N+](=O)[O-])cc2)CC(=O)CN(S(=O)(=O)c2ccc([N+](=O)[O-])cc2)C1
EC50: > 200 µM
IC50: > 200 µM

Cc1ccc(NC(=O)C(=O)C2C(=O)NC(=O)NC2=O)c(C)c1
EC50: > 832 µM
IC50: > 832 µM

CC(C)=CCC(O)[C@](C)(O)[C@H]1[C@H](O)C[C@@]2(C)[C@@H]3CCc4cc(O)c(OC5OC(CO)C(O)C(O)C5O)cc4C3(C)C(=O)C[C@]12C (stereo partly specified)
EC50: > 200 µM
IC50: > 200 µM

O=C(O)/C(Cl)=C(\Cl)C(=O)NC1C2CC3CC(C2)CC1C3 (stereo unspecified)
outcome: inactive

Cc1cc(C)c(P2C(=C(O[Si](C(C)C)(C(C)C)C(C)C)C(C)(C)C)C2(c2ccccc2)c2ccccc2)c(C)c1 (stereo unspecified)
EC50: > 100 µM
IC50: > 100 µM

Oc1ccc(-c2nc(-c3ccccc3)c(-c3ccccc3)[nH]2)cc1
EC50: > 200 µM
IC50: 26.9 µM

CC(=O)OCC1OC(OCCCOP(=S)(OCCC#N)OCC2OC(n3ccc(N)nc3=O)C(OC(=O)c3ccccc3)C2OC(=O)c2ccccc2)C(OC(C)=O)C(OC(C)=O)C1OC(C)=O (stereo unspecified)
EC50: > 100 µM
IC50: > 100 µM

O=C1c2ccccc2N2OC3(N4CCCC4)CCCCC3C12c1ccccc1 (stereo unspecified)
EC50: > 10 µM
IC50: > 10 µM

Cc1ccccc1NC(=O)c1[nH]c(=S)nc(N)c1-c1ccccc1C
EC50: > 97.7 µM
IC50: > 97.7 µM

O=C1CCCC2CCCCN12 (stereo unspecified)
outcome: inactive

Nc1nc(Cl)cc(NCC2(CCO)CCC2)n1
EC50: > 200 µM
IC50: 138 µM

CO/C(N)=C(\C#N)N=Cc1ccsc1
EC50: > 200 µM
IC50: 126 µM

NC(N)=NS(=O)(=O)c1ccc(Nc2c3ccccc3nc3c(C(=O)NNCCO)cccc23)cc1
EC50: > 200 µM
IC50: 5.25 µM

CC(=O)Nc1ccc(S(=O)(=O)Nc2ccc(S(=O)(=O)c3ccc(-n4sc5ccccc5c4=O)cc3)cc2)cc1
EC50: 16.6 µM
IC50: 102 µM

O=P1(Nc2ccc(/C=C3\C=Cc4ccccc43)cc2)NCCCO1 (stereo unspecified)
EC50: > 39.8 µM
IC50: 22.9 µM

CC(C)(C)OC(=O)N(CC1OC(n2cnc3c(N)ncnc32)C2OC(C)(C)OC12)OC(=O)C(C)(C)C (stereo unspecified)
EC50: > 200 µM
IC50: > 200 µM

CC(C)(C)n1c(=O)n(-c2ccccc2)n(C(C)(C)C)c1=O
EC50: > 200 µM
IC50: > 200 µM

CC(=O)C(CCC#N)(CCC#N)CCC#N
EC50: > 200 µM
IC50: > 200 µM

Cc1ccc(S(=O)(=O)Nc2ccccc2NS(=O)(=O)c2ccc(C)cc2)cc1
EC50: > 200 µM
IC50: 30.2 µM

Cc1ccc(NC(=O)CCC(=O)C2CC(=O)CC/C2=N\NC(=O)c2cc3ccccc3cc2O)cc1C (stereo unspecified)
EC50: > 363 µM
IC50: 12.9 µM

CN1C(=O)OC2CC/C=C\CCC2C1c1ccccc1 (stereo unspecified)
outcome: inactive

COc1ccc(C=C(C(C)=O)C(C)=O)cc1
EC50: > 437 µM
IC50: 58.9 µM

CCOC(=O)C(CO)(CC(CO)(C(C)=O)C(=O)OCC)C(C)=O (stereo unspecified)
EC50: > 200 µM
IC50: 27.5 µM

CCN(CC)CCOC(=O)CCN1CC2CCC(CC2)C1
EC50: > 200 µM
IC50: > 200 µM

Cc1ccc2c(c1)sc1nncn12
EC50: > 100 µM
IC50: > 100 µM

N#C/C(=C1/c2cc([N+](=O)[O-])ccc2-c2c1cc([N+](=O)[O-])cc2[N+](=O)[O-])N1CCCCC1
EC50: > 200 µM
IC50: > 200 µM

CC(C)(C)OC(=O)N1C(=O)C2CCCC21 (stereo unspecified)
EC50: > 200 µM
IC50: > 200 µM

CCOC(=O)c1c(C)cc(=O)n2c1[nH]c1ccccc12
EC50: > 200 µM
IC50: 151 µM

Cn1c(=O)nc2n(-c3ccc(Cl)cc3)c(-c3ccccc3)c(-c3ccccc3)nc-2c1=O
outcome: inactive

COc1ccc(N=Nc2c(C)c(C#N)c(=S)n(C3OC(COC(C)=O)C(OC(C)=O)C(OC(C)=O)C3OC(C)=O)c2C)cc1 (stereo unspecified)
EC50: > 200 µM
IC50: > 200 µM

Nc1ccc2nc(NCc3ccc(F)cc3)cnc2c1
EC50: > 933 µM
IC50: 83.2 µM

C#C[C@H]1CCCCCC1O (stereo partly specified)
EC50: > 1820 µM
IC50: 1230 µM

COC(=O)n1nnc2ncccc21
EC50: > 200 µM
IC50: > 200 µM

CCCCCCCCCCCCCCCc1cc(O)ccc1N=O
EC50: > 200 µM
IC50: 2.57 µM

COC(=O)c1ccc(CSc2ccccc2)cc1
EC50: > 28.2 µM
IC50: > 28.2 µM

CCOC(=O)C(Cc1ccccc1)P(=O)(OCC)OCC (stereo unspecified)
EC50: > 200 µM
IC50: 158 µM

Clc1ccc(NC2=NCCCS2)c2ccccc12
EC50: > 200 µM
IC50: 42.7 µM

C=C(C)C1Cc2c(cc3c(c2O)c(=O)c2ccccc2n3C)O1 (stereo unspecified)
EC50: > 200 µM
IC50: 1.17 µM

COc1ccc(C2(OC)Oc3cc(OC)ccc3C(=O)C2(O)OC)cc1 (stereo unspecified)
EC50: > 200 µM
IC50: 11 µM

NCCCNCCSSC/C=C\CSSCCNCCCN
outcome: inactive

BrCCOc1ccc(-c2c3ccccc3c(-c3ccc(OCCBr)cc3)c3ccccc23)cc1
EC50: > 100 µM
IC50: > 100 µM

CC(=O)c1ccc2c(c1)CC1(C2)Cc2cc3c(cc2C1=O)CCC3 (stereo unspecified)
EC50: > 200 µM
IC50: 14.5 µM

CN(C)CCN1N=Nc2cccc3cccc1c23
outcome: inactive

Clc1ccc2c(c1)Oc1ccccc1C=N2
EC50: > 363 µM
IC50: 6.31 µM

O=C1CC2CC(=O)CC2(C2CC=CC2)C1 (stereo unspecified)
EC50: > 245 µM
IC50: > 245 µM

N=c1oc2cc(O)c(O)cc2cc1C(N)=O
EC50: > 8.32 µM
IC50: 7.41 µM

COC(=O)c1cc(NC2OCC(OC(C)=O)C(OC(C)=O)C2OC(C)=O)nc(SC)c1C(=O)OC (stereo unspecified)
EC50: > 200 µM
IC50: > 200 µM

Nc1ccnc2c1ncn2[C@H]1C[C@H](O)[C@@H](CO)O1
EC50: > 200 µM
IC50: > 200 µM

C[C@@H]1N[C@@H](C)Cc2c(-c3ccc(O)c4ccccc34)c(O)cc(O)c21
EC50: > 200 µM
IC50: 30.9 µM

CCN(CC)/C(Sc1ccccc1)=C(\C(Cl)=C(Cl)Cl)[N+](=O)[O-]
EC50: > 200 µM
IC50: 12.3 µM

O=C(O)COc1ccc(C(=O)/C(SS/C(C(=O)c2ccc(OCC(=O)O)c(Cl)c2Cl)=C2\C=C(c3ccc(F)cc3)SS2)=C2/C=C(c3ccc(F)cc3)SS2)c(Cl)c1Cl
EC50: > 37.2 µM
IC50: > 37.2 µM

NCCCCC(NC(=O)C(N)Cc1ccc(O)cn1)C(=O)O (stereo unspecified)
EC50: > 200 µM
IC50: > 200 µM

COC(=O)c1c(C(=O)OC)c2cc(C(=O)c3ccccc3)ccn2c1Cl
EC50: > 26.9 µM
IC50: > 26.9 µM

COc1cc(-c2nnc3n2NC=C(C(=O)O)S3)cc(OC)c1OC
EC50: > 257 µM
IC50: > 257 µM

Cc1c(CCN=P(c2ccccc2)(c2ccccc2)c2ccccc2)c(=O)n2c([nH]c3ccccc32)c1C#N
EC50: > 200 µM
IC50: 31.6 µM

O=[N+]([O-])c1ccc(C2=Nn3c(nnc3-c3ccc(Cl)cc3)SC2)o1
outcome: inactive

CN(C)CCNC(=O)Cn1cc([N+](=O)[O-])c(=O)c2ccccc21
EC50: > 200 µM
IC50: > 200 µM

c1ccc2nc(SSc3ccc4ccccc4n3)ccc2c1
EC50: > 200 µM
IC50: 24 µM

Cn1c(=O)nc2n(-c3cc(Cl)ccc3Cl)c3ccccc3nc-2c1=O
outcome: inactive

CCCCCCCCCCCCCC(=O)OCC1OC(n2cc(F)c(=O)[nH]c2=O)C(N)C(OC(=O)CCCCCCCCCCCCC)C1O (stereo unspecified)
EC50: > 7.41 µM
IC50: > 7.41 µM

CN1COCc2cc3cc4c(cc3nc21)OCCO4
EC50: > 200 µM
IC50: 97.7 µM

CCOC1C2c3cc(OC)c(OC)cc3CC(C#N)(c3ccccc32)N1C(=O)c1ccccc1 (stereo unspecified)
outcome: inactive

[C-]#[O+].[C-]#[O+].[C-]#[O+].[C-]#[O+].[C-]#[O+].[C-]#[O+].[Fe].[Fe].c1ccc([P-]c2ccccc2[P-]c2ccccc2)cc1 (stereo unspecified)
EC50: > 1.82 µM
IC50: > 1.82 µM

OCC(O)C1OCOC2COCOC21 (stereo unspecified)
EC50: > 200 µM
IC50: > 200 µM

CCOC(=O)c1cnc2c(ccc3ncccc32)c1Cl
EC50: > 66.1 µM
IC50: 34.7 µM

Cc1cc(OCC(O)CO)ccc1-c1ccccc1 (stereo unspecified)
EC50: > 977 µM
IC50: 295 µM

COC1(OC)C2(Cl)C3=CCCC=C3C1(Cl)C(Cl)=C2Cl
outcome: inactive

CCOC(=O)CC(CC(=O)OCC)n1cnc2c(N)ncnc21
outcome: inactive

NC(=O)c1ncn(C2CCC(CP(=O)(O)O)C2)c1N (stereo unspecified)
EC50: > 200 µM
IC50: > 200 µM
